In the assay the target is T1, hKv3.1 (Homo sapiens, UniProt P48547).
T1 construct: expressed in transfected cells
T1 sequence (P48547 1-511): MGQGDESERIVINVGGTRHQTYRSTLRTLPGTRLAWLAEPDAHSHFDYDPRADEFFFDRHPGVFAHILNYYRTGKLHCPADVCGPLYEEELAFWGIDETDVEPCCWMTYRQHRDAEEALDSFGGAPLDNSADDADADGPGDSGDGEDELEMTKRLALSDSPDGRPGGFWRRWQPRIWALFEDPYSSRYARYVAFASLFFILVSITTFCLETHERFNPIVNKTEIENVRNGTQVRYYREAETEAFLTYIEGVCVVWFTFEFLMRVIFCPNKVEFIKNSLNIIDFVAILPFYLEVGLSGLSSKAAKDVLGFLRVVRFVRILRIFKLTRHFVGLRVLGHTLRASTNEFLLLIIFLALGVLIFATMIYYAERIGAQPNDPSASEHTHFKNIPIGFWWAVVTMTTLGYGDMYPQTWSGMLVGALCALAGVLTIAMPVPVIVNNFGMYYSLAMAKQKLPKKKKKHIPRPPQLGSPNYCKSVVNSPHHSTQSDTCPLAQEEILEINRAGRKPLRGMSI
In words: Automated patch clamp (Patchliner) whole-cell electrophysiology, Kv3.1. Type of assay: cell-based. The settings on record: 10 μM compound, CHO-K1 cells stably expressing hKv3.1; for Kv3.1 Activity at 10 μM Potentiation (%): % potentiation of peak current at −10 mV voltage step vs vehicle; for Kv3.1 Activity at 10 μM Voltage Shift (mV): voltage shift of the IV curve at V1/2. On the procedure:
hKv3.1, hKv3.2, hKv3.3, and hKv3.4 were stably expressed in CHO-K1 (Chinese hamster ovary) cells and kept under constant antibiotic selection. For in vitro assays, cells were maintained in appropriate growth medium at 37° C. and 5% CO2 in a humidified incubator.
hKv3.X expressing cells were plated in T-25 flasks for 3-4 days at 37° C. (no selection antibiotic) prior to use and grown to 80% confluence. Cells were washed twice with PBS (calcium and magnesium free) and detached with a 5-minute treatment at 37° C. with 2-3 mls of Accutase®. Cells were collected, and flask was washed in CHO-SFM II media (Life Technologies Gibco), centrifuged for 2 minutes at ˜110×g and resuspended to obtain a single cell suspension of ˜2-3×10^6 cells/ml.
The intracellular solution contained the following (in mM): KCl 50, NaCl 10, KF 60, EGTA 20, HEPES 10, adjusted to pH 7.2 with KOH and an osmolarity of 285 mOsmol. Seal enhancer was purchased from Nanion (80 mM NaCl, 3 mM KCl, 10 mM MgCl2, 35 mM CaCl2), 10 mM HEPES, pH7.4, 298 mOsmol. The external solution contained (in mM): NaCl 140, KCl 4, CaCl2) 2, MgCl2 1, HEPES 10, Glucose 5, adjusted to pH7.4 and an osmolarity of 298 mOsmol.
All compounds were initially tested at 10 uM at a final DMSO concentration of 0.33%. Compounds were dissolved in dimethylsulfoxide (DMSO) at a stock concentration of 30 mM. The compound was further diluted 1:10 to give a stock concentration of 3 mM in DMSO. The final assay solution was diluted 1:300 in External solution to give a final concentration of 10 uM. For the DMSO Control Buffer 30 uL of DMSO was added to 10 mL buffer.
All electrophysiological recordings were performed at ambient temperature (21-23° C.) using automated patch clamp (Patchliner, Nanion Technologies GmbH) in the whole-cell configuration.
Cell membrane potentials were held at −80 mV, and currents were evoked by voltage steps (1000 ms duration) from −60 to +60 mV in 10 mV increments. This was performed first with vehicle (0.33% DMSO) and then with 10 uM compound, after a 3-minute incubation period. Data was taken from 4 cells per assay.
The recordings were analysed and selected using peak current amplitude (>100 pA at the −10 mV voltage step) in the absence of compound to eliminate unsuitable cells from analysis. Peak current amplitude was measured and recorded for each voltage step and data was normalised to the maximum current at +60 mV. The normalised Kv3.x currents following addition of the compound were then compared with the currents recorded prior to compound addition (vehicle control). Positive modulation was determined as % potentiation at the voltage step of −10 mV=[current (cmpd)/current (veh)]*100−100. % potentiation ≥50% was considered acceptable. In addition, voltage shift of the IV curve at V1/2 was measured. V1/2 of ≥−5 mV was also considered acceptable. IV curves were plotted in GraphPad Prism (software version 6.0) and fitted with a Boltzmann equation, where V1/2 is the voltage at half-maximal activation.
On the technique in general: The patch-clamp technique gives a direct electrical read-out from membranes.

On to `CC[C@@]1(C)NC(=O)N(c2ccnc(Oc3ccc(C)c(F)c3)c2)C1=O` [Example 12, (5R)-5-ethyl-3-[2-(3-fluoro-4-methyl-phenoxy)-4-pyridyl]-5-methyl-imidazolidine-2,4-dione], for which the “Kv3.1 Activity at 10 μM Potentiation (%)” value is 6% and the “Kv3.1 Activity at 10 μM Voltage Shift (mV)” value is −3.31 mV.
Consider `CC[C@@]1(C)NC(=O)N(c2ccnc(Oc3ccc(Cl)c(OC)c3)c2)C1=O` [Example 15, (5R)-5-ethyl-3-[2-(3-methoxy-4-chloro-phenoxy)-4-pyridyl]-5-methyl-imidazolidine-2,4-dione], for which the “Kv3.1 Activity at 10 μM Potentiation (%)” value stood at 3% and the “Kv3.1 Activity at 10 μM Voltage Shift (mV)” value was −0.9 mV.
For `CC[C@@]1(C)NC(=O)N(c2ccnc(Oc3ccc(C)c(C)c3)c2)C1=O` [Example 17, (5R)-3-[2-(3,4-dimethylphenoxy)-4-pyridyl]-5-ethyl-5-methyl-imidazolidine-2,4-dione], in that order: 28% and −3.12 mV.
For `CC[C@@]1(C)NC(=O)N(c2ccnc(Oc3ccc4c(c3)OCCC4)c2)C1=O` [Example 19, (5R)-3-(2-chroman-7-yloxy-4-pyridyl)-5-ethyl-5-methyl-imidazolidine-2,4-dione], the “Kv3.1 Activity at 10 μM Potentiation (%)” value stood at 35% and the “Kv3.1 Activity at 10 μM Voltage Shift (mV)” value is −0.4 mV.
Taken in the same sequence, the figures for `CC[C@H]1NC(=O)N(c2ccnc(Oc3ccc(C)c(OC)c3)c2)C1=O` [Example 23, (5R)-5-ethyl-3-[2-(3-methoxy-4-methyl-phenoxy)-4-pyridyl]imidazolidine-2,4-dione] were 30% and 0.77 mV.
Turning to `Cc1ccc(Oc2cc(N3C(=O)NC4(CCCCC4)C3=O)ccn2)cc1OC(F)(F)F` [Example 29, 3-[2-[4-methyl-3-(trifluoromethoxy)phenoxy]-4-pyridyl]-1,3-diazaspiro[4.5]decane-2,4-dione], the “Kv3.1 Activity at 10 μM Potentiation (%)” value turned out to be 12% and the “Kv3.1 Activity at 10 μM Voltage Shift (mV)” value is reported as −0.63 mV.
Taken in the same sequence, the figures for `COc1cc(Oc2cc(N3C(=O)NC4(CCOCC4)C3=O)ccn2)ccc1C` [Example 32, 3-[2-(3-methoxy-4-methyl-phenoxy)-4-pyridyl]-8-oxa-1,3-diazaspiro[4.5]decane-2,4-dione] were 19% and −2.06 mV.
Taken in the same sequence, the figures for `CC[C@H]1NC(=O)N(c2cncc(Oc3ccc(C)c(OC)c3)c2)C1=O` [Example 38, (5R)-5-ethyl-3-[5-(3-methoxy-4-methyl-phenoxy)-3-pyridyl]imidazolidine-2,4-dione] were 48% and −2.8 mV.
Taken in the same sequence, the figures for `CC[C@@]1(C)NC(=O)N(c2cncc(Oc3ccc(C)c(OC)c3)c2)C1=O` [Example 40, (5R)-5-ethyl-3-[5-(3-methoxy-4-methyl-phenoxy)-3-pyridyl]-5-methyl-imidazolidine-2,4-dione] were 78% and −4.77 mV.
For the molecule `CC[C@H]1NC(=O)N(c2cc(Oc3ccc4ccccc4c3)ccn2)C1=O` [Example 42, (5R)-5-ethyl-3-[4-(2-naphthyloxy)-2-pyridyl]imidazolidine-2,4-dione], the “Kv3.1 Activity at 10 μM Potentiation (%)” value is 25% and the “Kv3.1 Activity at 10 μM Voltage Shift (mV)” value is listed as −3.07 mV.
`CC(C)c1cc(Oc2ccnc(N3C(=O)NC(C)(C)C3=O)c2)ccc1C#N` [Example 47, 4-[[2-(4,4-dimethyl-2,5-dioxo-imidazolidin-1-yl)-4-pyridyl]oxy]-2-isopropyl-benzonitrile]: the “Kv3.1 Activity at 10 μM Potentiation (%)” value came to 29% and the “Kv3.1 Activity at 10 μM Voltage Shift (mV)” value was −1.49 mV.
`CC[C@H]1NC(=O)N(c2cccc(Oc3ccc(OC)c(C)c3)n2)C1=O` [Example 51, (5R)-5-ethyl-3-[6-(4-methoxy-3-methyl-phenoxy)-2-pyridyl]imidazolidine-2,4-dione]: the “Kv3.1 Activity at 10 μM Potentiation (%)” value is recorded as 7% and the “Kv3.1 Activity at 10 μM Voltage Shift (mV)” value was −1.99 mV.
Taken in the same sequence, the figures for `CC[C@H]1NC(=O)N(c2cccc(Oc3cc(OC)ccc3C)n2)C1=O` [Example 52, (5R)-5-ethyl-3-[6-(5-methoxy-2-methyl-phenoxy)-2-pyridyl]imidazolidine-2,4-dione] were 14% and −3.5 mV.
For `CC[C@H]1NC(=O)N(c2cccc(Oc3cc(C)cc(OC)c3)n2)C1=O` [Example 54, (5R)-5-ethyl-3-[6-(5-methoxy-3-methyl-phenoxy)-2-pyridyl]imidazolidine-2,4-dione], the “Kv3.1 Activity at 10 μM Potentiation (%)” value was 11% and the “Kv3.1 Activity at 10 μM Voltage Shift (mV)” value was −1.69 mV.
For the molecule `CC[C@H]1NC(=O)N(c2cccc(Oc3cccc(OC)c3)n2)C1=O` [Example 55, (5R)-5-ethyl-3-[6-(3-methoxy-phenoxy)-2-pyridyl]imidazolidine-2,4-dione], the “Kv3.1 Activity at 10 μM Potentiation (%)” value is reported as 11% and the “Kv3.1 Activity at 10 μM Voltage Shift (mV)” value is listed as −1.41 mV.
For `CC[C@H]1NC(=O)N(c2cccc(Oc3cccc(C)c3OC)n2)C1=O` [Example 56, (5R)-5-ethyl-3-[6-(2-methoxy-3-methyl-phenoxy)-2-pyridyl]imidazolidine-2,4-dione], in that order: 19% and −2.7 mV.
Turning to `CC[C@H]1NC(=O)N(c2cccc(Oc3ccc(C#N)cc3C(C)(C)C)n2)C1=O` [Example 57, 3-tert-butyl-4-[[6-[(4R)-4-ethyl-2,5-dioxo-imidazolidin-1-yl]-2-pyridyl]oxy]benzonitrile], the “Kv3.1 Activity at 10 μM Potentiation (%)” value is −23% and the “Kv3.1 Activity at 10 μM Voltage Shift (mV)” value turned out to be 2.18 mV.
Taken in the same sequence, the figures for `CC[C@@]1(C)NC(=O)N(c2cccc(Oc3ccc(F)c(OC)c3)n2)C1=O` [Example 59, (5R)-5-ethyl-3-[6-(4-fluoro-3-methoxy-phenoxy)-2-pyridyl]-5-methyl-imidazolidine-2,4-dione] were 10% and −1.95 mV.
For `CC[C@@]1(C)NC(=O)N(c2cccc(Oc3ccc(F)c(C)c3)n2)C1=O` [Example 60, (5R)-5-ethyl-3-[6-(4-fluoro-3-methyl-phenoxy)-2-pyridyl]-5-methyl-imidazolidine-2,4-dione], in that order: 51% and −3.45 mV.
In the case of `CC[C@@]1(C)NC(=O)N(c2cccc(Oc3ccc4c(c3)CCC4)n2)C1=O` [Example 61, (5R)-5-ethyl-3-(6-indan-5-yloxy-2-pyridyl)-5-methyl-imidazolidine-2,4-dione], the “Kv3.1 Activity at 10 μM Potentiation (%)” value came out at 46% and the “Kv3.1 Activity at 10 μM Voltage Shift (mV)” value was −3.55 mV.
Consider `CC[C@@]1(C)NC(=O)N(c2cccc(Oc3ccc(Cl)c(OC)c3)n2)C1=O` [Example 62, (5R)-3-[6-(4-chloro-3-methoxy-phenoxy)-2-pyridyl]-5-ethyl-5-methyl-imidazolidine-2,4-dione], for which the “Kv3.1 Activity at 10 μM Potentiation (%)” value is reported as 57% and the “Kv3.1 Activity at 10 μM Voltage Shift (mV)” value is −4.05 mV.

These data come from patent US12090146B2, “Substituted-pyridinyl compounds and uses thereof” (Bionomics Limited, priority 2018, dated 2024).
